Assay [1] concerns the target T1, MetJ dimer–DNA complex (F-metC) (Escherichia coli, UniProt P0A8U6). Also noted: method as in PMID 19194573. The following applies: monovalent ligand 4, 2 mM; F-metC 10 nM; read-out: EC50, concentration of MetJ monomer required to promote half-maximal formation of its complex with the F-metC DNA; cited from earlier work.
Assay [2] has as its target T1, MetJ dimer–DNA complex (F-metC). Description: Fluorescence anisotropy assay: MetJ titrated into F-metC DNA and ligand, MetJ dimer–DNA complex formation. The format is binding. The following applies: for EC50: F-metC 10 nM, read-out: EC50, concentration of MetJ monomer required to promote half-maximal formation of its complex with the F-metC DNA. The text has this:
A fluorescence anisotropy-based binding assay was used to compare the relative ability of SAM analogues to promote MetJ dimer–DNA complex formation. Since SAM has low affinity for MetJ in the absence of DNA,[8,13] measurements were made in the presence of the DNA fragment F-metC, a fluorescently-labeled analogue of the shortest naturally occurring operator sequence, metC.[14] Titration of MetJ into a solution containing fixed concentrations of F-metC and ligand allows the change in anisotropy related to ternary complex formation to be measured (Fig. 5).
Figure 5 Cartoon illustrating the fluorescence anisotropy assay. The SAM molecules promote the formation of a SAM–F-metC–protein complex, with two MetJ dimers bound to the 18 base-pair DNA duplex.
The half-maximal concentration of MetJ, EC50, required to promote complex formation was determined for each ligand. […] The monovalent ligands 11 and 12 (2 mM) and the bivalent ligands 9 and 10 (1 mM) all promoted the formation of the MetJ–DNA complex (Table 1). […] The unquaternised bivalent ligands 9a–e (1 mM) promoted complex formation up to about threefold more effectively than the corresponding monovalent analogue 11. Similarly, the quaternised bivalent ligands 10a and 10b promoted, respectively, complex formation 2.4- and 3.6-fold more effectively than the quaternised monovalent analogue 12.
Analysis of novel SAM analogues binding to MetJ in the presence of operator DNA was carried out using fluorescence anisotropy. Fluorescence anisotropy experiments were performed on a Spex Fluorolog Tau spectrofluorometer (HORIBA Jobin Yvon) controlled by Datamax software. The excitation and emission wavelengths were set to 488 nm and 517 nm respectively. Slit widths were set to 5 nm and all experiments were carried out at 19 °C. The detector integration time was 5 seconds and three readings were taken of each sample to obtain an average anisotropy. Free anisotropy values were 0.051-0.060. Increase in fluorescence anisotropy was observed upon titration of MetJ into a solution of F-metC (10 nM) with and without ligand ([…]) in TK buffer pH 7.6 (50 mM Trizma hydrochloride pH 7.6, 100 mM KCl) with a total starting volume of 200 µL. […] The final DMSO concentration was 2% or less. After each addition, the sample was mixed with a pipette and left to equilibrate for five minutes before the fluorescence anisotropy readings were acquired. The intensity of linear and perpendicular light, compared to the excitation light is measured experimentally and the anisotropy was calculated using the following equation:‖
The data was fitted to a sigmoidal growth logistic model using the following equation: […]
Where A1 refers to the initial value, A2 refers to the final value, x0 refers to the centre and p is a value relating to the slope of the transition. Errors refer the standard deviation of three titration repeats. An arbitrary weighting function with the following equation was employed: […]

Where [3] appears, read: quaternised ligands 2 mM, average of three titrations.

Data on 5 compounds can be found in article PMC3267017, “Design, synthesis and in vitro evaluation of novel bivalent S-adenosylmethionine analogues” (Bioorganic & Medicinal Chemistry Letters, 2012).

Read-outs that look alike come from different tables or passages of the source.

T1 sequence (P0A8U6 2-105, one chain of several): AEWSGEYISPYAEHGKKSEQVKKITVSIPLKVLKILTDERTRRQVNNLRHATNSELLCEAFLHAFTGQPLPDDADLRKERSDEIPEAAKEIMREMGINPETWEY

On to `CCCNC(=O)CCCN(C)C[C@H]1O[C@@H](n2cnc3c(N)ncnc32)[C@H](O)[C@@H]1O` [Compound 4], for which the EC50 in assay [1] was 1000 ± 100 nM.
Take `CN(CCCC(=O)NCCCCCCNC(=O)CCCN(C)C[C@H]1O[C@@H](n2cnc3c(N)ncnc32)[C@H](O)[C@@H]1O)C[C@H]1O[C@@H](n2cnc3c(N)ncnc32)[C@H](O)[C@@H]1O` [Compound 18d, N,N′-Di-[5′-deoxy-5′-N-methyl-N′-(4-butyryl)-adenosine]-1,6-diaminohexane]: the EC50 in assay [2] (unquaternised ligands 2 mM, average of three titrations) was found to be 47 ± 1 nM.
With `C[N+](C)(CCCC(=O)NCCCNC(=O)CCC[N+](C)(C)C[C@H]1O[C@@H](n2cnc3c(N)ncnc32)[C@H](O)[C@@H]1O)C[C@H]1O[C@@H](n2cnc3c(N)ncnc32)[C@H](O)[C@@H]1O.[I-].[I-]` [Compound 19b, N,N′-Dimethyl-N,N′-di-[5′-deoxy-5′-N-methyl-N′-(4-butyryl)-adenosine]-1,3-diaminopropane diiodide], in assay [2] (quaternised ligands 2 mM), the “Fold-improvement over monovalent control 5” value is reported as 1.4-fold. The EC50 in assay [2] (setting [3]) was 108 ± 3 nM.
On the same counts, the results for `C[N+](C)(CCCC(=O)NCCCCCCNC(=O)CCC[N+](C)(C)C[C@H]1O[C@@H](n2cnc3c(N)ncnc32)[C@H](O)[C@@H]1O)C[C@H]1O[C@@H](n2cnc3c(N)ncnc32)[C@H](O)[C@@H]1O.[I-].[I-]` [Compound 19d, N,N′-Dimethyl-N,N′-di-[5′-deoxy-5′-N-methyl-N′-(4-butyryl)-adenosine]-1,6-diaminohexane diiodide] are 2.9-fold and 51 ± 2 nM.
On to `C[S+](CC[C@H](N)C(=O)[O-])C[C@H]1O[C@@H](n2cnc3c(N)ncnc32)[C@H](O)[C@@H]1O` (stereo partly shown) [SAM, 1, S-Adenosylmethionine], for which the EC50 in assay [2] (SAM, ligand concentration not given, DMSO 2%) came out at 17.3 ± 0.3 nM.
